Data as given in patent US20150051210A1, “Tyrosine Kinase Inhibitor Combinations and their Use” (Novartis AG, priority 2012, published 2015).

Tests used:
Assay type in all cases: cell-based
[1] = tested on: MKN-45 cells; test: MKN-45 Dual Inhibition: reversal of rescue with selective inhibitors, CellTiter-Glo cell viability; details: for activity on cell viability (reversal of rescue): MET-dependent MKN-45, rhFGF7 or rhNRG-1 250 ng/ml, 96 h, Cpd. A/Cpd. B 100 nM, BGJ398 500 nM, Lapatinib 1.5 μM, FIG. 3, FIG. 4
Description: MKN-45 Secretome screen: MKN-45 cells were plated in white, tissue-culture treated 384-well plates (Greiner) at 3000 cells/20 μl DMEM +10% FBS/well and allowed to attach overnight. Supernatant from library-transfected HEK293T/17 cells was then transferred to the MKN-45 cells at 30 μl/well using a Biomek FX liquid handler (Beckman Coulter) with pipetting speeds reduced to minimize disturbance of the HEK293T/17 monolayer. As positive controls, the purified proteins rhEGF and rhNRG1-31 (R&D Systems) were added to isolated wells on each plate for a final concentration of 150 ng/ml; supernatant from mock-transfected HEK293T/17 wells were transferred as neutral controls. Following addition of supernatants and purified protein controls, Cpd. A diluted in DMEM was added at 10 μl/well for a final assay concentration of 100 nM. After 96 hours incubation, growth was measured using the CellTiter-Glo luminescent cell viability assay system (Promega). In brief, 30 μl CellTiter-Glo reagent was added to all wells, then incubated for 15 minutes at room temperature before reading luminescence on a Viewlux plate reader (Perkin Elmer). (FIG. 1)
MKN-45 Dual Inhibition: MKN-45 cells were seeded at 3000 cells/20 μl/well in 384-well plates and incubated overnight. Solutions of rhFGF7 and rhNRG-1 were prepared in DMEM+10%FBS, then added at 30 μl/well to achieve a final concentration of 250 ng/ml (one purified protein per treatment). The following single and dual inhibition treatments were prepared in DMEM and added at […]: Cpd. A, Cpd. B, BGJ398, Lapatinib, Cpd. A and BGJ398, Cpd. B and BGJ398, Cpd. A and Lapatinib, Cpd. B and Lapatinib. Final concentrations for each compound, whether single or combined, were as follows: 100 nM for Cpd. A and Cpd. B, 500 nM for BGJ398 and 1.5 μM for Lapatinib. After 96 hours cell viability was measured by CellTiter-Glo as previously described. (FIG. 3, FIG. 4)

[2] = tested on: RT-112 cells; test: RT-112 Dual Inhibition: reversal of rescue with selective inhibitors, CellTiter-Glo cell viability; details: for activity on cell viability (reversal of rescue): RT-112, rhHGF or rhNRG-1 250 ng/ml, 96 h, BGJ398 100 nM, Cpd. A/Cpd. B 500 nM, Lapatinib 1.5 μM, FIG. 5, FIG. 6
Description: RT-112 Secretome screen: The basic format was identical to the MKN-45 secretome screen with slight modifications. RT-112 cells were plated in EMEM+10% in white, tissue-culture treated 384-well plates at 1000 cells/20 μl/well and allowed to attach overnight. Supernatant from library-transfected HEK293T/17 cells was transferred as described above for the MKN-45 secretome screen. Purified proteins rhNRG1-31 and rhTGFα were added as positive controls, at a final concentration of 150 ng/ml. Following addition of supernatants and purified protein controls, BGJ398 diluted in DMEM was added at 10 μl/well for a final assay concentration of 100 nM. Cell viability was measured after 72 hours using CellTiter-Glo as described above. (FIG. 2)
RT-112 Dual Inhibition: The format for the RT-112 dual inhibition experiment was similar to that described for MKN-45 with the following modifications. RT-112 cells were plated at 1000 cells/20 μl/well. Solutions of rhHGF and rhNRG-1 were added to achieve a final concentration of 250 ng/ml. Single and dual inhibition conditions were prepared as follows: BGJ398, Cpd. A, Cpd. B, Lapatinib, BGJ398 and Cpd. A, BGJ398 and Cpd. B, BGJ398 and Lapatinib. Final concentrations for each compound, whether single or combined, were as follows: 100nM for BGJ398, 500 nM for Cpd. A and Cpd. B, and 1.5 μM for Lapatinib. After 96 hours cell viability was measured by CellTiter-Glo as previously described. (FIG. 5, FIG. 6).

[3] = tested on: phosphorylation of MET, ERK1/2, AKT, FRS2 in MKN-45; test: Western blots of protein phosphorylation in MKN-45 cells
Description: (§1) Western Blots (Figures not Shown) MKN-45 and RT-112 cells were treated in 6-well plates for 2 hours and 18 hours in the presence or absence of purified protein (rhFGF7, rhNRG1-31, or rhHGF), and/or inhibitor (Cpd. B, Cpd. A, BGJ398). Following wash with ice-cold PBS, cells were lysed with RIPA buffer (Thermo) containing phosphatase (Thermo) and proteinase (Roche) inhibitor cocktails. Total protein was quantified by bicinchoninic protein assay (Pierce). Aliquots of 20 μg were resolved by electrophoresis on NuPAGE SDS-PAGE 4-12% BIS-Tris gels before transfer to nitrocellulose membranes. Membranes were blocked for one hour at room temperature before overnight incubation at 4° C. with the following primary antibodies (source rabbit, 1:1000 final dilution): anti-phospho-Akt (Ser473), anti-phospho-MET (Tyr1234/1235), anti-phospho-MAPK/ERK(1/2) (Thr202/Tyr204), anti-AKT, anti-MAPK/Erk(1/2), and anti-α/β-Tubulin . Anti-MET was probed at 1:800 final dilution An internal antibody was used for phospho-FRS2(Y346) (1:1500 dilution). Membranes were then washed 3 times in PBS+0.1% Tween before addition of secondary antibody, IRDye 680LT goat anti-rabbit IgG , dilution 1:15000. After one hour at room temperature, membranes were washed and bands were visualized using an Odyssey Infrared Imager.

[4] = tested on: phosphorylation of MET, FRS2, ERK, AKT in RT-112; test: Western blots of protein phosphorylation in RT-112 cells
Description: as §1

Molecule: C/C(=N\NC(N)=O)c1ccc2ncc(Cc3cc4cccnc4cc3F)n2n1 [Cpd. A, (E)-2-(1-(3-((7-fluoroquinolin-6-yl)methyl)imidazo[1,2-b]pyridazin-6-yl)ethylidene)hydrazinecarboxamide]
- activity on cell viability (reversal of rescue) [1]: active
- activity on cell viability (reversal of rescue) [2]: not sufficient
- effect on phosphorylation of several proteins (MET, ERK1/2, AKT, FRS2) ([3]; MKN-45, absence of added ligands): profound effect
- prevention of HGF rescue of ERK phosphorylation ([4]; RT-112, BGJ398 plus HGF, simultaneous addition): prevented this rescue effect
- MET phosphorylation ([4]; RT-112, absence of ligands): specifically inhibited MET phosphorylation

Molecule: CS(=O)(=O)CCNCc1ccc(-c2ccc3ncnc(Nc4ccc(OCc5cccc(F)c5)c(Cl)c4)c3c2)o1 [lapatinib, reference compound]
- activity on cell viability (reversal of rescue) [1]: not sufficient
- reversal of ligand-mediated rescue of proliferation ([1]; MKN-45 in presence of MET inhibitor Cpd. A or Cpd. B, FIGS. 3, 4): reversed rescue by NRG1
- activity on cell viability (reversal of rescue) [2]: not sufficient
- reversal of FGF7 rescue effect on FRS2 and ERK1/2 phosphorylation ([3]; MKN-45, MET inhibitor plus FGF7): not
- sensitivity of NRG1-evoked phosphorylation re-activation to inhibitor ([3]; MKN-45, MET inhibitor plus NRG1): specifically sensitive
- sensitivity of NRG1-caused restoration of ERK phosphorylation to inhibitor ([4]; RT-112): lapatinib-sensitive

Molecule: HGF: Hepatocyte Growth Factor
- rescue of cell proliferation by recombinant ligand ([2]; RT-112 in presence of FGFR inhibitor): reproduce the rescue effects
- ERK phosphorylation after addition of ligand ([4]; RT-112, in the presence of BGJ398): restored ERK phosphorylation

B1: FGF7: Fibroblast Growth Factor 7 (activator of FGFR) (protein, UniProt P21781 32-194, looked up)
Fibroblast growth factor 7: CNDMTPEQMATNVNCSSPERHTRSYDYMEGGDIRVRRLFCRTQWYLRIDKRGKVKGTQEMKNNYNIMEIRTVAVGIVAIKGVESEFYLAMNKEGKLYAKKECNEDCNFKELILENHYNTYASAKWTHNGGEMFVALNQKGIPVRGKKTKKEQKTAHFLPMAIT
- AKT phosphorylation after addition of ligand ([3]; MKN-45, MET inhibited): no or minimal effect on AKT phosphorylation
- ERK1/2 phosphorylation after addition of ligand ([3]; MKN-45, MET inhibited): partially re-activated ERK1/2 phosphorylation
- FRS2 phosphorylation after addition of ligand ([3]; MKN-45, MET inhibited): re-activated FRS2 phosphorylation
